The conditions of series [1]: 25° C./60% rh; for Pyrazino-s-triazine derivative of 4α-hydroxy-5-methyl-THF (MeFox) (% w/w): major degradation product.
Procedure: Additionally the content of the pyrazino-s-triazine derivative of 4α-hydroxy-5-methyl-THF (MeFox), a major degradation product, was measured by HPLC at periodic intervals and disclosed as absolute values (% w/w).
The procedure of series [2]: DVS measurements are typically performed with an SPS11-100n “Sorptions Prüfsystem” from ProUmid (formerly “Projekt Messtechnik”), August-Nagel-Str. 23, 89079 Ulm (Germany).
DVS measurements were performed with an SPS11-100n “Sorptions Prüfsystem” from ProUmid (formerly “Projekt Messtechnik”), August-Nagel-Str. 23, 89079 Ulm (Germany).

The nature of series [3]: Water content / TG-FTIR analysis.
Procedure: Thermogravimetric measurements were carried out with a Netzsch Thermo-Microbalance TG 209 coupled to a Bruker FTIR Spectrometer Vector 22 (sample pans with a pinhole, N2 atmosphere, heating rate 10 K/min).
The conditions of series [4]: for Pyrazino-s-triazine derivative of 4α-hydroxy-5-methyl-THF (MeFox) (% abs.): 40° C./75% rh, major degradation product.
Procedure: The content of 5-methyl-(6S)-tetrahydrofolic acid remaining in the sample was measured by HPLC at periodic intervals. The content of 5-methyl-(6S)-tetrahydrofolic acid remaining was also compared to the initial value at the time of preparation (% rel.). Additionally the content of the pyrazino-s-triazine derivative of 4α-hydroxy-5-methyl-THF (MeFox), a major degradation product, was measured by HPLC at periodic intervals and disclosed as absolute values (% w/w).

Like-named read-outs stand apart in the source and are kept apart here.

In the case of `CN1c2c([nH]c(N)nc2=O)NC[C@@H]1CNc1ccc(C(=O)N[C@@H](CCC(=O)[O-])C(=O)[O-])cc1.[Ca+2]`, the “Pyrazino-s-triazine derivative of 4α-hydroxy-5-methyl-THF (MeFox) (% w/w)” value in series [1] (0 months) is recorded as 0.20 % w/w; in series [1] (3 months) it was 0.59 % w/w; in series [1] (6 months), 0.71 % w/w; in series [1] (9 months), 0.68 % w/w. Moreover, the “content of MeFox” value in series [1] (already before reaching 9 months) and in series [4] (already before reaching 9 months (Table 7)) was “over 0.6%” throughout. Also, the “change of water content” value in series [2] (relative humidity from 20 to 75% r.h.) is listed as “more than 6%”. The “change of water content (DVS)” value in series [2] (within the tested range, 0 to 75% r.h.) is on record as “more than 6%”. In series [3] (general statement), the “water content (generally)” value is listed as “more than 10%”. In addition, the water content in series [3] (measured on a sample) is given as 12.4%. In addition, the “Pyrazino-s-triazine derivative of 4α-hydroxy-5-methyl-THF (MeFox) (% abs.)” value is 0.20 % abs in series [4] (0 months), 0.72 % abs in series [4] (3 months), 0.80 % abs in series [4] (6 months) and 0.68 % abs in series [4] (9 months).

Source of the values: patent US12221446B2 (Merck Patent GmbH, priority 2018, dated 2025).
